Results from publication PMC5355811 (Nature Communications, 2017).
Where “and” joins values, the source holds several entries; their conditions need not be identical. Equal values may be shown once. Read-outs that look alike come from different tables or passages of the source.

Key:
Type in all cases: cell-based
[1] = tested on: Ba/F3 cells of EGFR-del19; experiment: Drug sensitivity screening at 100 nM, Ba/F3 EGFR-del19; conditions: for Relative cell viability (% of DMSO control) in del19 Ba/F3 cells: 100 nM; for viability at 0.1 µM: Mus musculus, BaF3, 72 h, read-out: Relative cell viability (ratio to DMSO control), del19
Experimental: (§1) After the incubation, cell viability was measured using CellTiter-Glo assay. The relative cell viability was calculated as a ratio of each value to that of the DMSO control.

[2] = tested on: Ba/F3 cells of EGFR-T790M/del19; experiment: Drug sensitivity screening at 100 nM, Ba/F3 EGFR-T790M/del19; conditions: for Relative cell viability (% of DMSO control): 100 nM; for viability at 0.1 µM: Mus musculus, BaF3, 72 h, read-out: Relative cell viability (ratio to DMSO control), del19/T790M
Experimental: as §1

[3] = tested on: Ba/F3 cells of EGFR-C797S/T790M/del19; experiment: Drug sensitivity screening at 100 nM, Ba/F3 EGFR-C797S/T790M/del19; conditions: Mus musculus, BaF3, 72 h, 100 nM inhibitor, 72 h, DMSO = 100; mean of three independent experiments (Fig. 1a data)
Experimental: as §1

[4] = 100 nM inhibitor, 72 h, DMSO = 100, mean of three independent experiments (Fig. 1a data)

Structure (SMILES) | Relative cell viability (ratio to DMSO control), del19 [1, 4] | Relative cell viability (% of DMSO control) in del19 Ba/F3 cells ([1]; 72 h, DMSO = 100, experiment 1) | Relative cell viability (% of DMSO control) in del19 Ba/F3 cells ([1]; 72 h, DMSO = 100, experiment 2) | Relative cell viability (% of DMSO control) in del19 Ba/F3 cells ([1]; 72 h, DMSO = 100, experiment 3) | Relative cell viability (ratio to DMSO control), del19/T790M [2, 4] | Relative cell viability (% of DMSO control) ([2]; 72 h, DMSO = 100, experiment 1) | Relative cell viability (% of DMSO control) ([2]; 72 h, DMSO = 100, experiment 2) | Relative cell viability (% of DMSO control) ([2]; 72 h, DMSO = 100, experiment 3) | viability at 0.1 µM [3] [%] | viability at 0.1 µM [1, 4] [%] | viability at 0.1 µM [2, 4] [%] | viability at 0.1 µM [1] [%] | viability at 0.1 µM [2] [%]
C=CCNC1=C2C[C@@H](C)C[C@H](OC)[C@H](O)[C@@H](C)/C=C(\C)[C@H](OC(N)=O)[C@@H](OC)/C=C\C=C(/C)C(=O)NC(=CC1=O)C2=O [17-AAG] | 54.15 and 54.1494 | 47.4299 | 59.7934 | 55.225 | 63.86 | 65.6049 | 64.9663 | 61.0089 | – | – | – | – | –
Nc1ncnc2c1c(-c1cccc(OCc3ccccc3)c1)cn2[C@H]1C[C@@H](CN2CCC2)C1 [AEW541] | – | 86.142 | 111.013 | 118.474 | – | – | – | – | 132 | 105 | 102 | – | –
Cn1cnc2c(F)c(Nc3ccc(Br)cc3Cl)c(C(=O)NOCCO)cc21 [AZD6244] | – | 44.8792 | 57.317 | 50.3776 | – | 105.003 | 111.809 | 110.93 | 134 | 50.9 | 109 | – | –
CCc1cc2c(cc1N1CCC(N3CCOCC3)CC1)C(C)(C)c1[nH]c3cc(C#N)ccc3c1C2=O [Alectinib, alectinib] | – | 98.9355 | 105.786 | 113.209 | – | 98.2015 | 127.038 | 121.189 | 146 | 106 | 115 | – | –
COC(=O)c1ccc2c(c1)NC(=O)/C2=C(\Nc1ccc(N(C)C(=O)CN2CCN(C)CC2)cc1)c1ccccc1 [BIBF1120] | – | 91.4241 | 97.5116 | 102.157 | – | – | – | – | 108 | 97 | 91.1 | – | –
C[C@]12O[C@H](C[C@]1(O)CO)n1c3ccccc3c3c4c(c5c6ccccc6n2c5c31)CNC4=O [CEP701] | – | – | – | – | – | – | – | – | – | – | – | 2.57 | 7.99
Cc1nc2ccc(-n3ncc(C(=O)c4cc5ccccc5[nH]4)c3N)cc2[nH]1 [CH5183284] | 111.23 and 111.228 | 100.01 | 123.157 | 110.518 | 100.76 and 100.762 | 87.4669 | 110.946 | 103.872 | – | – | – | – | –
COc1cc2nccc(Oc3ccc(NC(=O)NC4CC4)c(Cl)c3)c2cc1C(N)=O [E7080] | 104.13 and 104.131 | 87.8792 | 107.525 | 116.989 | 118.49 and 118.491 | 107.332 | 130.309 | 117.831 | – | – | – | – | –
CO[C@H]1C[C@@H]2CC[C@@H](C)[C@@](O)(O2)C(=O)C(=O)N2CCCC[C@H]2C(=O)O[C@H]([C@H](C)C[C@@H]2CC[C@@H](OCCO)[C@H](OC)C2)CC(=O)[C@H](C)/C=C(\C)[C@@H](O)[C@@H](OC)C(=O)[C@H](C)C[C@H](C)/C=C/C=C/C=C/1C [Everolimus, everolimus] | – | 25.026 | 29.0998 | 35.5918 | – | 31.3636 | 39.0956 | 30.3952 | 28 | 29.9 | 33.6 | – | –
COc1cc2c(Oc3ccc(NC(=O)C4(C(=O)Nc5ccc(F)cc5)CC4)cc3F)ccnc2cc1OCCCN1CCOCC1 [Foretinib, foretinib] | – | 89.6065 | 99.5833 | 99.8956 | – | 105.61 | 122.653 | 104.986 | 135 | 96.4 | 111 | – | –
CS(=O)(=O)N1CCN(Cc2cc3nc(-c4cccc5[nH]ncc45)nc(N4CCOCC4)c3s2)CC1 [GDC0941] | – | 34.6965 | 39.6485 | 45.9129 | – | 45.3105 | 67.5344 | 51.7458 | 66.1 | 40.1 | 54.9 | – | –
Cc1ccc(NC(=O)c2ccc(CN3CCN(C)CC3)cc2)cc1Nc1nccc(-c2cccnc2)n1 [Imatinib, imatinib] | – | – | – | – | – | – | – | – | 129 | – | – | – | –
CS(=O)(=O)CCNCc1ccc(-c2ccc3ncnc(Nc4ccc(OCc5cccc(F)c5)c(Cl)c4)c3c2)o1 [Lapatinib, lapatinib] | – | – | – | – | – | – | – | – | – | – | – | 128 | 102
C[C@H]1Oc2cc(cnc2N)-c2c(nn(C)c2C#N)CN(C)C(=O)c2ccc(F)cc21 [Lorlatinib, lorlatinib] | – | 99.5381 | 109.489 | 108.837 | – | 93.1744 | 112.187 | 104.505 | 126 | 106 | 103 | – | –
O=C(C(c1ccccc1)c1ccccc1)N1CCN(CC(O)COc2cccc3ncccc23)CC1 (stereo not shown) [MS209] | 105.44 | 97.9213 | 113.609 | 104.789 | 109.461 | 106.534 | 123.336 | 98.5141 | – | – | – | – | –
Cc1[nH]c(/C=C2\C(=O)Nc3ccc(S(=O)(=O)Cc4c(Cl)cccc4Cl)cc32)c(C)c1C(=O)N1CCC[C@@H]1CN1CCCC1 [PHA665752] | – | 109.731 | 119.895 | 113.452 | – | – | – | – | 136 | 114 | 110 | – | –
CO[C@H]1C[C@@H]2CC[C@@H](C)[C@@](O)(O2)C(=O)C(=O)N2CCCC[C@H]2C(=O)O[C@H]([C@H](C)C[C@@H]2CC[C@@H](O)[C@H](OC)C2)CC(=O)[C@H](C)/C=C(\C)[C@@H](O)[C@@H](OC)C(=O)[C@H](C)C[C@H](C)/C=C/C=C/C=C/1C [Rapamycin, rapamycin] | – | 26.4621 | 39.8271 | 36.4731 | – | 30.0228 | 36.7261 | 31.8573 | 27.6 | 34.3 | 32.9 | – | –
COc1cc(N2CCC(N3CCN(C)CC3)CC2)ccc1Nc1ncc(Cl)c(Nc2ccccc2S(=O)(=O)C(C)C)n1 [TAE684] | – | – | – | – | – | – | – | – | 110 | 105 | 98.1 | – | –
CC(=O)Nc1cccc(-n2c(=O)n(C3CC3)c(=O)c3c(Nc4ccc(I)cc4F)n(C)c(=O)c(C)c32)c1 [Trametinib, trametinib] | – | 0.7444 | 0.954 | 0.9176 | – | 11.0855 | 11.5677 | 12.1404 | 44.2 | 0.872 | 11.6 | – | –
COc1cc2c(Nc3ccc(Br)cc3F)ncnc2cc1OCC1CCN(C)CC1 [Vandetanib, vandetanib] | – | 1.287 | 1.585 | 1.984 | – | 95.2444 | 114.653 | 98.1331 | 130 | 1.62 | 103 | – | –
